How the values were obtained:
[1] = target: T1, Macrophage migration inhibitory factor (Homo sapiens, UniProt P14174); experiment: Inhibition of human recombinant MIF tautomerase activity using 4-hydroxyphenylpyruvate as substrate
T1 sequence (P14174 whole entry): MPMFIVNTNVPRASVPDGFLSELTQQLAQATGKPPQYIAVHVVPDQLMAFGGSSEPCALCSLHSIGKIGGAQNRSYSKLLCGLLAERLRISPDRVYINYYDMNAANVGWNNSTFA

[2] = target: T2, MIF/CD74 (Macrophage migration inhibitory factor and HLA-DR antigens-associated invariant chain) (Homo sapiens) (UniProt P14174+P04233); settings: 4 nM
Description: Inhibition of human recombinant biotinylated MIF/CD74 ectodomain interaction at 4 nM by streptavidin alkaline phosphatase reporter system

[3] = target: T2, MIF/CD74 (Macrophage migration inhibitory factor and HLA-DR antigens-associated invariant chain) (Homo sapiens); settings: 78 nM
Description: Inhibition of human recombinant biotinylated MIF/CD74 ectodomain interaction at 78 nM by streptavidin alkaline phosphatase reporter system

Row | Structure (SMILES) | IC50 [1] | other results
1 | N#Cc1ccc2c(=O)n(-c3ccc(Cl)cc3)sc2c1 | 3.1 µM | 
2 | O=c1c2cc(Br)ccc2sn1-c1ccc(Cl)cc1 | 7.9 µM | 
3 | O=c1c2cccc(Cl)c2sn1-c1ccc(Cl)cc1 | 6.6 µM | 
4 | O=c1c2ccc(F)c(F)c2sn1-c1ccc(Cl)cc1 | 5.6 µM | 
5 | COCc1cccc(-n2sc3cc(F)ccc3c2=O)c1 | 2.4 µM | 
6 | O=c1c2ccc(O)cc2sn1-c1ccc(Cl)cc1 |  | inhibition [2]: 23%
7 | O=c1c2ccc(F)cc2sn1-c1cccc(Cl)c1 | 5 µM | 
8 | COc1cccc(-n2sc3cc(F)ccc3c2=O)c1 | 25 µM | 
9 | O=c1c2cc(F)c(F)cc2sn1-c1ccc(Cl)cc1 | 4.9 µM | 
10 | N#Cc1ccc2sn(-c3ccc(Cl)cc3)c(=O)c2c1 | 19 µM | 
11 | O=c1c2ccc(Br)cc2sn1-c1ccc(Cl)cc1 | 11 µM | 
12 | COc1ccc(-n2sc3ccc(F)cc3c2=O)cc1 | 6.5 µM | 
13 | COc1cccc(-n2sc3c(F)cccc3c2=O)c1 | 8 µM | 
14 | O=c1c2cccc(F)c2sn1-c1cccc(O)c1 | 5.9 µM | 
15 | CC(=O)OCc1cccc(-n2sc3cc(F)ccc3c2=O)c1 | 2.3 µM | 
16 | O=c1c2cccc(F)c2sn1-c1ccc(Cl)cc1 | 2.8 µM | 
17 | COc1cccc(-n2sc3ccc(F)cc3c2=O)c1 | 2.8 µM | 
18 | O=c1c2cc(F)ccc2sn1-c1ccc(Cl)cc1 | 5.6 µM | 
19 | O=c1c2cc([N+](=O)[O-])ccc2sn1-c1ccc(Cl)cc1 | 6.2 µM | 
20 | N#Cc1ccc(-n2sc3cc(F)ccc3c2=O)cc1 |  | inhibition [3]: 49%

Reference: ChEMBL document CHEMBL1806490, “Benzisothiazolones as modulators of macrophage migration inhibitory factor” (Bioorg Med Chem Lett, 2011)
